Measurements from patent EP1921068A1, “Indazole and indole derivatives as anti-inflammatory agents” (Bayer Schering Pharma Aktiengesellschaft, priority 2006, dated 2008).

Experiments:
[1] = biological target: T1, glucocorticoid receptor (GR) (Homo sapiens, UniProt P04150); assay: Binding to recombinantly produced glucocorticoid receptor (cytosol preparations of baculovirus-infected Sf9 cells, [3H]-dexamethasone as reference substance); settings: recombinant GR
T1 construct: made in house; host or cells: Sf9 insect cells infected with recombinant baculovirus; cytosol preparation
T1 sequence (P04150 1-777): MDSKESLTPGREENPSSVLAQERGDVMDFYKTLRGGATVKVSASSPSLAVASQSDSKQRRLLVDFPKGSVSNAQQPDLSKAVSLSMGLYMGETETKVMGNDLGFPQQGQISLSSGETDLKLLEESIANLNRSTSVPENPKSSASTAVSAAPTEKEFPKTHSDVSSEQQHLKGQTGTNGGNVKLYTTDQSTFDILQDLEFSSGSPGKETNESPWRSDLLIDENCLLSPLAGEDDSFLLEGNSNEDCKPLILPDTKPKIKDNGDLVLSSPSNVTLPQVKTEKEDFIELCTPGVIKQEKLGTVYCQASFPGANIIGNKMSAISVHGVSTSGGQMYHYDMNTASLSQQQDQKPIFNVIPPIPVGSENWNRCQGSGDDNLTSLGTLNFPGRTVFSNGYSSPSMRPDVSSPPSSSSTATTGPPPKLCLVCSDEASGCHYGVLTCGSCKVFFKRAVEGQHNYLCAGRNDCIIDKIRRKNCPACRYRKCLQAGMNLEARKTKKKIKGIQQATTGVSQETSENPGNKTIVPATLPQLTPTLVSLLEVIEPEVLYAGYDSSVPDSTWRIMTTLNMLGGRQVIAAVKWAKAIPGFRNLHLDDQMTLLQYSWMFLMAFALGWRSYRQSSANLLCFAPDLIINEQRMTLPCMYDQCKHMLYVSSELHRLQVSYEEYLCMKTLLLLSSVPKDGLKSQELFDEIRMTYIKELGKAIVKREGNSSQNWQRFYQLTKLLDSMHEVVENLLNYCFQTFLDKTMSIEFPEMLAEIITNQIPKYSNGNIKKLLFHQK
Excerpt: The binding of the substances to the glucocorticoid receptor (GR) and other steroid hormone receptors (mineral corticoid receptor (MR), progesterone receptor (PR) and androgen receptor (AR)) is examined with the aid of recombinantly produced receptors. Cytosol preparations of Sf9 cells, which had been infected with recombinant baculoviruses, which code for the GR, are used for the binding studies. In comparison to reference substance [^3H]-dexamethasone, the substances show a high to very high affinity to GR. IC50(GR) = 11,5 nM was thus measured for the compound from Example A16.

[2] = system: secretion of cytokine IL-8 into the human monocyte cell line THP-1; assay: Inhibition of LPS-triggered IL-8 secretion in THP-1 cells (ELISA of supernatant); format: cell-based
Method: The concentration of the cytokines was determined in the supernatant by means of commercially available ELISA kits.

IC50 [1]: 11.5 nM
IC50 ([2]; read-out: IC50(IL8)): 0.3 nM
Compound: CC(C)(CC(O)(CNc1cccc2c1cnn2-c1ccc(F)nc1)C(F)(F)F)c1cccc2c1OCO2 (stereo not drawn) [Example A16]
Emax ([2]; efficacy relative to dexamethasone, read-out: eff. relative to dexamethasone): 94%
